Several values for one entry are separate records, joined by “and”; a condition that tells them apart may be missing. Equal entries are not always repeated.
Assays:
[1] = target: cGMP-specific 3',5'-cyclic phosphodiesterase (Homo sapiens, UniProt O76074); assay: Inhibition of PDE5 (unknown origin)
[2] = target: Histone deacetylase; assay: Inhibition of HDAC (unknown origin); type: protein assay, Homo sapiens
[3] = target: T1, Amine oxidase [flavin-containing] B (Homo sapiens, UniProt P27338); assay: Inhibition of MAO-B (unknown origin)
T1 sequence (P27338 whole entry): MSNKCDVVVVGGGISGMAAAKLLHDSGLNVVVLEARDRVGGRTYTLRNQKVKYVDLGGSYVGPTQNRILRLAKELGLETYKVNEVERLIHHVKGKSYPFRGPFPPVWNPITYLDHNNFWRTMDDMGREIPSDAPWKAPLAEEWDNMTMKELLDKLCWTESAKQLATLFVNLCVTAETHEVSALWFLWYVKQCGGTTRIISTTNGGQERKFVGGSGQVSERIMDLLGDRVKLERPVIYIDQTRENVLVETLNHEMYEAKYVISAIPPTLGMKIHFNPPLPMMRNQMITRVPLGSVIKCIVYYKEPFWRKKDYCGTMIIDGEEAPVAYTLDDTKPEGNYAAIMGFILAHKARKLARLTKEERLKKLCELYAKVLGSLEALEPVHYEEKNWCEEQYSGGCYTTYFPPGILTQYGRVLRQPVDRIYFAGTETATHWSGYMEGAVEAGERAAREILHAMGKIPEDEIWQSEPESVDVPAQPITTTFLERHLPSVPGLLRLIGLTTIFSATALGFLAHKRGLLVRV

[4] = target: Acetylcholinesterase (Homo sapiens, UniProt P22303); assay: Inhibition of AChE (unknown origin)
[5] = target: Cholinesterase (Homo sapiens, UniProt P06276); assay: Inhibition of BuChE (unknown origin)
[6] = Inhibition of NMDA receptor (unknown origin); set-up: species or system Homo sapiens
[7] = target: Glycogen synthase kinase-3 beta (Homo sapiens, UniProt P49841); assay: Inhibition of GSK-3beta (unknown origin)
[8] = target: 5-hydroxytryptamine receptor 2A (Homo sapiens, UniProt P28223); assay: Displacement of [3H]-LSD from human 5-HT2A expressed in human HEK cells assessed as inhibition constant by FLIPR assay; type: cell-based
[9] = target: T2, 5-hydroxytryptamine receptor 3A (Homo sapiens, UniProt P46098); assay: Binding affinity to 5-HT3R (unknown origin) assessed as inhibition constant
T2 sequence (P46098 whole entry): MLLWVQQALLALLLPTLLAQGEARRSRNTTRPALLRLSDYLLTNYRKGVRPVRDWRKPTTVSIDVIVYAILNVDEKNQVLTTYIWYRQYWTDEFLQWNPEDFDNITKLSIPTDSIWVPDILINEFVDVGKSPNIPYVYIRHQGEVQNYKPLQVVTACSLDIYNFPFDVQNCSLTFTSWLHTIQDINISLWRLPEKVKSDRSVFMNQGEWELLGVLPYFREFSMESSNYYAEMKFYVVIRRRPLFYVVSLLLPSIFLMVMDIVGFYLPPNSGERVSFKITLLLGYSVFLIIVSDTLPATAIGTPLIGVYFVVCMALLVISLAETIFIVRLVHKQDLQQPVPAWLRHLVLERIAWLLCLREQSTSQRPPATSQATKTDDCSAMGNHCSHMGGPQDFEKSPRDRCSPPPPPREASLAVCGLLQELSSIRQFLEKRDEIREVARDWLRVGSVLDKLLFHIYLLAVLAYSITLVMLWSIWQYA

[10] = target: 5-hydroxytryptamine receptor 5A (Homo sapiens, UniProt P47898); assay: Binding affinity to 5-HT5AR (unknown origin) assessed as inhibition constant
[11] = target: T3, Amine oxidase [flavin-containing] A (Homo sapiens, UniProt P21397); assay: Binding affinity to MAO-A (unknown origin) assessed as inhibition constant
T3 sequence (P21397 whole entry): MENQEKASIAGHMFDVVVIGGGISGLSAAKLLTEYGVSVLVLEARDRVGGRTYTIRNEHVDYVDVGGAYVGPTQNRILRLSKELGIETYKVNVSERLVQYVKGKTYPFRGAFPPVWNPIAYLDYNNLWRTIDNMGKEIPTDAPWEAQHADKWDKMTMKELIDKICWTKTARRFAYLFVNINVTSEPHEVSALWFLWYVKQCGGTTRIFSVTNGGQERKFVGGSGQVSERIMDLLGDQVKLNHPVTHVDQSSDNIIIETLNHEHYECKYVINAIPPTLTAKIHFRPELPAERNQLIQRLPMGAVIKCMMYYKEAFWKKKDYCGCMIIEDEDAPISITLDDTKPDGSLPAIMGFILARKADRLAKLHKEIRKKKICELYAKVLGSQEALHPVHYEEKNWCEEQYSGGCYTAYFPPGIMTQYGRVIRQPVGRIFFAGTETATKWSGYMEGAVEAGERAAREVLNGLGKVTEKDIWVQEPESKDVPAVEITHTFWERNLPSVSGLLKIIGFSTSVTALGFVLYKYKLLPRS

[12] = target: T3, Amine oxidase [flavin-containing] A; assay: Inhibition of MAO-A (unknown origin)
[13] = target: Histone deacetylase 1 (Homo sapiens, UniProt Q13547); assay: Inhibition of HDAC1 (unknown origin)
[14] = target: T4, Protein deacetylase HDAC6 (Homo sapiens, UniProt Q9UBN7); assay: Inhibition of HDAC6 (unknown origin)
T4 sequence (Q9UBN7 whole entry): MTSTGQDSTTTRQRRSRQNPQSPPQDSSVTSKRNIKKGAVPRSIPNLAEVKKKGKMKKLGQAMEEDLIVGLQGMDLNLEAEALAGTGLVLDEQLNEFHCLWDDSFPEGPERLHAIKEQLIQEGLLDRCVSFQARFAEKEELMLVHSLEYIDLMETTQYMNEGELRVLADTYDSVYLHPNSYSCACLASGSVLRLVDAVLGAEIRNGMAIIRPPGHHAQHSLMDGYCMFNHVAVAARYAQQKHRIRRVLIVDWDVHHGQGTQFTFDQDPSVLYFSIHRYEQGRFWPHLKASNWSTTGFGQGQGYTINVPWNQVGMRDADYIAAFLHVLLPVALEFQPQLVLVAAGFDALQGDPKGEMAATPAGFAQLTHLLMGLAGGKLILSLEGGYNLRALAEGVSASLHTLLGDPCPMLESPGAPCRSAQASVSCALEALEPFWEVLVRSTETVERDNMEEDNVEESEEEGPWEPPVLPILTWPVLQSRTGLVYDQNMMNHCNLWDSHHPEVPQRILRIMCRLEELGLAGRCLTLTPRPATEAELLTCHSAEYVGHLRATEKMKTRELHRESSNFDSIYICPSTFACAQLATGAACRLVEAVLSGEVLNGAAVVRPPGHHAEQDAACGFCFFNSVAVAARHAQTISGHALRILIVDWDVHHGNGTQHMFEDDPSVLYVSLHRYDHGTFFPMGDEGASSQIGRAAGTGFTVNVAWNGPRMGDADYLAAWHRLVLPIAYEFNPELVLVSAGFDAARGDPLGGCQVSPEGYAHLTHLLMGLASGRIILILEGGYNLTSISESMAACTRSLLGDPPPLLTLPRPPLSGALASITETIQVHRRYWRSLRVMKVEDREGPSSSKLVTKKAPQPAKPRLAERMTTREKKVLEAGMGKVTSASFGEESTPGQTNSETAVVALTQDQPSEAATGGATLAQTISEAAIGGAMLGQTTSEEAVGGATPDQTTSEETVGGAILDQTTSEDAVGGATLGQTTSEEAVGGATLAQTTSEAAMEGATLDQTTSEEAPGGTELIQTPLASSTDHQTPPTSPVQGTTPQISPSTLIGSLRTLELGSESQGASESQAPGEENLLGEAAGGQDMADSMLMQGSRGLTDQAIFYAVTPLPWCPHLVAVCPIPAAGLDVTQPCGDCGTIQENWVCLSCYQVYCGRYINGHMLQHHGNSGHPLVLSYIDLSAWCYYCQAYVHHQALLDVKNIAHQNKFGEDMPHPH

[15] = target: Amyloid-beta precursor protein (Homo sapiens) (UniProt P05067); assay: Inhibition of amyloid beta (unknown origin) aggregation at 25 uM relative to control
Chain of Amyloid-beta precursor protein (Homo sapiens) (P05067 whole entry): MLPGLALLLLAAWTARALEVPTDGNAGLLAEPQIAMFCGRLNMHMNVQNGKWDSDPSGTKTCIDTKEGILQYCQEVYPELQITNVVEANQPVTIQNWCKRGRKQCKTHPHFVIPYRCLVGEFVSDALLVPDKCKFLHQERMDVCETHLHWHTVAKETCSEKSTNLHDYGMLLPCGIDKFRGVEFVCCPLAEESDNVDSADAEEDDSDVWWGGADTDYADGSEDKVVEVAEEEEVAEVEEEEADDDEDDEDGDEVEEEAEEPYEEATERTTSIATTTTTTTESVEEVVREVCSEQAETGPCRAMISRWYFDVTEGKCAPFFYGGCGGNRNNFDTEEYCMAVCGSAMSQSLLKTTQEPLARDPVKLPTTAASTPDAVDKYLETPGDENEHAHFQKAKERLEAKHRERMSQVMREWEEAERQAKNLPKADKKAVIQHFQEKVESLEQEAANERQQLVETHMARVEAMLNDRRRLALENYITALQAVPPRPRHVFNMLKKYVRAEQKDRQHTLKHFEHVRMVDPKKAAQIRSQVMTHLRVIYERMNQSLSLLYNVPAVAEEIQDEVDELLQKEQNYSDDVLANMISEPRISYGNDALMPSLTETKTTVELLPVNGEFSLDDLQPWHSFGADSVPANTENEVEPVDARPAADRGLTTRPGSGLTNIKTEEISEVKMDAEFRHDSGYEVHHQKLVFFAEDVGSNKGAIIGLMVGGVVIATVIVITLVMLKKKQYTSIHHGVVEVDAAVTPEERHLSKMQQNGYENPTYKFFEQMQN

Chain of Cholinesterase (P06276 whole entry): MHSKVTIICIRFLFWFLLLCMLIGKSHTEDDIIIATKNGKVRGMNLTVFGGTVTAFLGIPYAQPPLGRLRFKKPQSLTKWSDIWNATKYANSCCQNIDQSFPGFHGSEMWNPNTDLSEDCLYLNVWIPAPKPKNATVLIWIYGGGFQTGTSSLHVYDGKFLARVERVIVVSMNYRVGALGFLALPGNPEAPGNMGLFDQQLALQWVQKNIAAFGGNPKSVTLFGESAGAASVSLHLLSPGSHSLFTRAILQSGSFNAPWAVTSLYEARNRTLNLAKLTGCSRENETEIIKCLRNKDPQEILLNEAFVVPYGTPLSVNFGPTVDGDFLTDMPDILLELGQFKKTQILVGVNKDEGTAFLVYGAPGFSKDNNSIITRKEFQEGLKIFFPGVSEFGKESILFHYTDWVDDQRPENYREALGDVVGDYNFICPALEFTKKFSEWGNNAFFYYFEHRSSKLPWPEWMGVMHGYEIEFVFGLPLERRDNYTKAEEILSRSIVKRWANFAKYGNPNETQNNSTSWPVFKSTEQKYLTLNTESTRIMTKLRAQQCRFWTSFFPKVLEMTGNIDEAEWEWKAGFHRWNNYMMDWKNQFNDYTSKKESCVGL
Chain of Acetylcholinesterase (P22303 whole entry): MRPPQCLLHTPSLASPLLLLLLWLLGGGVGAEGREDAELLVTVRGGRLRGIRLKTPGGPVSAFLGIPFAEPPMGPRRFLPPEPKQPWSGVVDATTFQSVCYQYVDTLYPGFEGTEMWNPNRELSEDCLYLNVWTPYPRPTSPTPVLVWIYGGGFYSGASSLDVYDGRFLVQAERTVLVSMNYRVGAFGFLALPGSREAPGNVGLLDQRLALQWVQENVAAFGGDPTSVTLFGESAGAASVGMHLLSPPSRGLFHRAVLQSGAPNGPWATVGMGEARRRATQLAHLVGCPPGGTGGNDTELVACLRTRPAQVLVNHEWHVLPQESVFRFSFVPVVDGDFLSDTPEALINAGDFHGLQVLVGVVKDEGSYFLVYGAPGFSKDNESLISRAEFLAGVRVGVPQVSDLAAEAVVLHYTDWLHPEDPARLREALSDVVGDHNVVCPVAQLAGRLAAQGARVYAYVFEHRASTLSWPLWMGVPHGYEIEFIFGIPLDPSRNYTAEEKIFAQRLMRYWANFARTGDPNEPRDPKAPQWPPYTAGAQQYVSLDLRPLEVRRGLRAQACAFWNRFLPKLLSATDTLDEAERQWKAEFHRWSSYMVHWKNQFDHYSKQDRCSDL
Chain of 5-hydroxytryptamine receptor 5A (P47898 whole entry): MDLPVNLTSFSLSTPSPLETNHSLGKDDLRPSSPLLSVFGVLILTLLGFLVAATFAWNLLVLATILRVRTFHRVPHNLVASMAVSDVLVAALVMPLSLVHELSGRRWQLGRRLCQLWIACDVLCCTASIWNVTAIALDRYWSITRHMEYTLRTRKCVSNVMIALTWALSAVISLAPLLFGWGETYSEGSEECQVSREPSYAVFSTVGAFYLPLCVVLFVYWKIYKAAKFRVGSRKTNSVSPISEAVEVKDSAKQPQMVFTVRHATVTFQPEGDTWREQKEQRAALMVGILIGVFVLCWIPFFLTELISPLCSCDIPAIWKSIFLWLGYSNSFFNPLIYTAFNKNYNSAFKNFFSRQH
Chain of Histone deacetylase 1 (Q13547 whole entry): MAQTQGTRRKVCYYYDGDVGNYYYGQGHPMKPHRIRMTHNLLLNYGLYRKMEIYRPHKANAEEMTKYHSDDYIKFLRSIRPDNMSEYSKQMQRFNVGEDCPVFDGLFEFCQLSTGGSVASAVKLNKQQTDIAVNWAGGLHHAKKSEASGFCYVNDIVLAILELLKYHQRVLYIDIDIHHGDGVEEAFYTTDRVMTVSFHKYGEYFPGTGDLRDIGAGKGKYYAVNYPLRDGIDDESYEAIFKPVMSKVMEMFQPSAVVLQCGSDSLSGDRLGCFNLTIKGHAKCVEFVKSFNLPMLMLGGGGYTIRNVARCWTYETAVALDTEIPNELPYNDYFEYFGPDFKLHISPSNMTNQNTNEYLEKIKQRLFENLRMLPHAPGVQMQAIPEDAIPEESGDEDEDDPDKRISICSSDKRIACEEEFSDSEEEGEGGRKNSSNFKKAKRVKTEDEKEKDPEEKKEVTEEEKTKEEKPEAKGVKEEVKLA
Chain of Glycogen synthase kinase-3 beta (P49841 whole entry): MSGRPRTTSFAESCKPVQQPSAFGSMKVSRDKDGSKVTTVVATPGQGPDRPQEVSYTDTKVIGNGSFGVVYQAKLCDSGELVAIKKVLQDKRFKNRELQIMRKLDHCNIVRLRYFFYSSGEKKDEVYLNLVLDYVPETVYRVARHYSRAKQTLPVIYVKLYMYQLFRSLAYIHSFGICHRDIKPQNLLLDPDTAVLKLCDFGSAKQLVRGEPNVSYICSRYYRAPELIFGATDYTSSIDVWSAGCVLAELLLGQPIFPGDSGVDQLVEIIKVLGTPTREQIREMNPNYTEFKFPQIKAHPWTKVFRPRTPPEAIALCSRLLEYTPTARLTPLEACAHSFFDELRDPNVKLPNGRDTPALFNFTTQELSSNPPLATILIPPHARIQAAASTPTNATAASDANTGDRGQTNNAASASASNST
Chain of 5-hydroxytryptamine receptor 2A (P28223 whole entry): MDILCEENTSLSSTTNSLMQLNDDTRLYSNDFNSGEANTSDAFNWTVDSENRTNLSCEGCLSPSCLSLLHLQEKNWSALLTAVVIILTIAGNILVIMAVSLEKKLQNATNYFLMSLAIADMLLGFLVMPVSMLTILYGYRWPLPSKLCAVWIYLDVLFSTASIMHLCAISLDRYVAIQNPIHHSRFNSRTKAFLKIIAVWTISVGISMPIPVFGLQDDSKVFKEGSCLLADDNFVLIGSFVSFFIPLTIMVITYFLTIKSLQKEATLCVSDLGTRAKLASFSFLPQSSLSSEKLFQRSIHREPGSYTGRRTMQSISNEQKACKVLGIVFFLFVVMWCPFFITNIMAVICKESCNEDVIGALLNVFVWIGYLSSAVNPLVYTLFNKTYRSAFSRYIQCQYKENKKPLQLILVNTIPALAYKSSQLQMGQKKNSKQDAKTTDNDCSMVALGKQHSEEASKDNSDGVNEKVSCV

With `O=C(CCCCCN1CC(=O)N2[C@H](c3ccc(Br)cc3)c3[nH]c4ccccc4c3C[C@@H]2C1=O)NO` as the molecule, how does the IC50 [1] read?
Its IC50 is 7 nM.

And the IC50 [2]?
Its IC50 is 61 nM.

For `COC(=O)C1=CN2CCc3c([nH]c4ccccc34)[C@@H]2C[C@H]1C1=CCOC1=O`, which IC50 [3] is on record?
Its IC50 is 34000 nM.

For `c1ccc2c(c1)[nH]c1c[n+](CCCCCCCCCCCC[n+]3ccc4c(c3)[nH]c3ccccc34)ccc12`, which IC50 [4] is on record?
The IC50 was 86000 nM.

What about the IC50 [5] of the same molecule?
Its IC50 is 1800 nM.

What about the IC50 [6] of the same molecule?
Its IC50 is 1800 nM.

With `O=C(CCCCCCN1CC(=O)N2[C@H](c3ccc(Cl)cc3)c3[nH]c4ccccc4c3C[C@@H]2C1=O)NO` as the molecule, how does the IC50 [1] read?
Its IC50 is 126 nM.

And the IC50 [2]?
The IC50 was 9.1 nM.

For `Oc1cccc2c1[nH]c1c(C3=C[C@@]4(O)CC/C=C\CCCCN5CCC3[C@]3(C[C@@H]6/C=C\CCCCN6[C@H]34)C5)nccc12` (stereo partly drawn), which IC50 [7] is on record?
Its IC50 is 4800 nM.

With `COc1ccc2[nH]c3c(c2c1)CCN=C3C` as the molecule, how does the Ki [8] read?
Its Ki is 4200 nM.

What about the Ki [9] of the same molecule?
Its Ki is > 10000 nM.

And the Ki [10]?
The Ki was > 10000 nM.

With `COc1ccc2c3c(n(C)c2c1)C(C)=[N+](C)CC3` as the molecule, how does the Ki [11] read?
The Ki was 140 nM.

Which IC50 [4] does the source give for `C[n+]1ccc2c3ccccc3n(CCc3ccccc3)c2c1` here?
Its IC50 is 0.5 nM.

And the IC50 [5]?
The IC50 was 5000 nM.

And the IC50 [6]?
The IC50 was 5000 nM.

What does the source list for `CCCCn1c2cc(OCc3cn(Cc4ccccc4Cl)nn3)ccc2c2ccnc(C)c21`?
IC50 [12]: 430 nM; IC50 [3]: 360 nM

Which results are given for `C/C=C(\C=O)[C@@H]1C[C@H]2c3[nH]c4ccccc4c3CCN2C=C1C(=O)OC` [ISOVALLESIACHOTAMINE]?
IC50 [12]: 870 nM; IC50 [3]: 130000 nM

With `O=C(NO)c1cnc(N2CCC(CN3CC(=O)N4C(Cc5c([nH]c6ccccc56)C4c4ccc5c(c4)OCO5)C3=O)CC2)nc1` (stereo not drawn) as the molecule, how does the IC50 [1] read?
Its IC50 is 310 nM.

And the IC50 [13]?
The IC50 was 80 nM.

What about the IC50 [14] of the same molecule?
Its IC50 is 80 nM.

For `CCCCc1ccc[n+](CC(=O)Nc2ccc3cc4c5[nH]c6ccccc6c5ccn4c(=O)c3c2)c1`, which inhibition [15] is on record?
Its inhibition is 93%.

For `CCCc1ccc[n+](CC(=O)Nc2ccc3cc4c5[nH]c6ccccc6c5ccn4c(=O)c3c2)c1`, which inhibition [15] is on record?
Its inhibition is 93%.

What does the source list for `O=C(CCCCN1CC(=O)N2[C@H](c3ccc(Br)cc3)c3[nH]c4ccccc4c3C[C@@H]2C1=O)NO`?
IC50 [1]: 7 nM; IC50 [2]: 61 nM

With `COc1ccc2c3cc[n+](C)c(C)c3n(C)c2c1` as the molecule, how does the Ki [11] read?
The Ki was 69 nM and 15 nM.

— ChEMBL document CHEMBL5233266, “β-Carboline as a Privileged Scaffold for Multitarget Strategies in Alzheimer's Disease Therapy” (J Med Chem, 2021)
